Here are results for 19 compounds from patent US10071983B2, “Activatable fluorogenic compounds and uses thereof as near infrared probes” (Ramot at Tel-Aviv University Ltd., priority 2011, dated 2018).

Each structure is given as a SMILES string. Where only a bound is given, the exact number is not on record here.

A short description of series [1]: In vivo imaging of exogenous hydrogen peroxide (premixed probe injected). On the set-up: species or system mice. As to the method:
Initially, as a simple control experiment, a premixed solution of probe 4 with hydrogen peroxide was injected into the peritoneal cavity, and the mice were imaged in a CRI Maestro™ non-invasive fluorescence imaging system.
Next, it was tested whether probe Compound 4 can be used to differentiate in vivo various concentrations of hydrogen peroxide in order to test the system's sensitivity. Therefore, two different concentrations of hydrogen peroxide were premixed with probe Compound 4; immediately injected intramuscularly, into the leg, and then imaged by the CRI Maestro™ non-invasive fluorescence imaging system.

For series [2], the system named is endogenously produced hydrogen peroxide. Kind of series: In vivo imaging of endogenous hydrogen peroxide, LPS-induced acute inflammation. On the set-up: species or system Balb/c mice. Here is the method: To induce acute inflammation in Balb/c mice, 1 ml (0.1 mg/ml) of LPS (Lipopolysaccharides from Escherichia coli 055:B5, Sigma) was injected into the peritoneal cavity of Balb/c mice as previously described [Lee, D. et al. Nat. Mater. 6, 765-769 (2007)]. Six hours later, additional i.p. injections of 400 μl of 1 mM of the tested probe compound or PBS (as control) were performed. Second control group of mice was injected i.p. with 1 ml of PBS followed by additional i.p. injection of 400 μl PBS. Fifteen minutes later, mice were anesthetized using ketamine (100 mg/kg) and xylazine (12 mg/kg), treated with a depilatory cream (Veet®), and placed inside CRI Maestro non-invasive fluorescence imaging system. Multispectral image-cubes were acquired through 600-800 nm spectral range in 10 nm steps using excitation (595 nm) and emission (635 nm longpass) filter set. Mice autofluorescence and undesired background signals were eliminated by spectral analysis and linear unmixing algorithm. Activated probe-fluorescence unmixed specific signal was quantified as total signal of photons/exposure time (sec). Data is expressed as mean±s.d.
The, the use of probe Compound 4 for visualizing endogenously-produced hydrogen peroxide was tested. […] Mater. 6, 765-9 (2007)]. Mice were injected intraperitoneally (i.p.) with LPS (1 ml of 0.1 mg/ml), followed 6 hours later by additional i.p. injection of probe Compound 4 (400 μl of 1 mM) and were thereafter imaged by the CRI Maestro™ non-invasive fluorescence imaging system.

Series [3] can be described thus: NIR fluorescence emission spectrum of dye compounds. The format is physicochemical. Particulars: PBS 7.4 [50 μM], excitation 570 nm, cutting filter >690 nm.
Series [4] in a line: NIR fluorescence assay of probe Compound 4 with hydrogen peroxide. Here is the method: In order to evaluate the NIR fluorescence obtained by probe Compound 4 upon reaction with hydrogen peroxide under physiological conditions, the probe was incubated in PBS 7.4 at 37° C., in the presence and absence of hydrogen peroxide at varying concentrations, and the emitted NIR fluorescence was measured by a spectrophotometer (M2 of Molecular Device). The results, presented in FIG. 20A, indicate full conversion of probe Compound 4 to sulfo-QCy7 within 30 minutes (red plot).
The sensitivity of probe Compound 4 towards detection of hydrogen peroxide was then evaluated.

Series [5] is described as follows: NIR fluorescence emission spectrum of dye compounds. The format is physicochemical. The following applies: for λmax: Table 1, λmax (fluorescence emission). From the text: (§1) Compound 1 (which generates the dye compound QCy7 deprotonation) was obtained as an orange crystalline powder. FIGS. 4A and 4B present the UV-Vis spectrum of Compound 1 (FIG. 4A), compared to that of the acetate Compound 3 (FIG. 4B). […] The obtained large stokes shift between the excitation and the emission wavelengths of about 150 nm is a desirable feature for fluorescence probes, which assists in increasing the signal-to-noise ratio.
(§2) FIG. 5 presents the data obtained for fluorescence intensity vs. wavelength of standard sample (Cresyl violet; FIG. 5A), and test sample (QCy7; FIG. 5B), at the indicated concentrations. The measurements were performed in a 1 cm cuvette using Fluoromax-3 fluorometer; at an excitation wavelength of 560 nm. Cresyl violet was dissolved in methanol and Compound 1 in PBS 7.4 (just generating QCy7).
(§3) FIG. 8 presents the data obtained for fluorescence intensity vs. wavelength of standard sample (QCy7; FIG. 8A), and test sample (Sulfo-QCy7, generated from Compound 9; FIG. 8B), at the indicated concentrations. The measurements were performed at a 96-wells plate reader using Fluoromax-3 fluorometer; at an excitation wavelength of 560 nm. Both samples were dissolved in PBS 7.4.

A short description of series [6]: UV-Vis absorption spectrum of dye compounds. Particulars: for λmax: Table 1, first λmax column (absorption peaks). The series is classed as physicochemical.
Source text: as §1
Compound 14 is composed from a phenol latent donor and two different acceptors; a picolinium moiety and an indolium moiety (see, Scheme 3). Deprotonation of the phenolic dye leads to formation of new donor-acceptor pair fluorochrome.
Compound 18 is composed of a phenol latent donor and two identical acceptors based on a picolinium moiety (see, Scheme 4). Deprotonation of the phenolic form leads to formation of new donor-acceptor pair fluorochrome.
Compound 25 is composed of a phenol latent donor and three acceptors; two picolinium moieties and one indolium moiety (see, Scheme 5). Deprotonation of the phenolic compound leads to formation of three resonance donor-two-acceptor structures of new fluorochrome.
The chemical 2D structures and spectroscopic data obtained for exemplary dye molecules according to embodiments of the present invention are presented in Table 1.

Series [7] in a line: Aqueous stability in PBS 7.4 at 37° C., NIR emission over 72 hours. The format is physicochemical. Particulars: PBS 7.4 [25 μM]. Here is the method: The aqueous stability of the cyanine-like dye compound presented herein was tested and compared to that of the cyanine molecule Cy7.
All tested compounds were incubated in PBS 7.4 [25 μM], at 37° C., and their NIR fluorescent emission was monitored over 72 hours. FIG. 15 presents the normalized intensity of NIR fluorescent emission of dyes generated from Compound 9 (green circles; Sulfo-QCy7), Compound 14 (blue diamonds), Compound 18 (red squares), Compound 25 (orange triangles) and Compound 1 (blank navy squares; QCy7) as a function of incubation time.

A short description of series [8]: pKa measurement by UV-Vis absorbance as a function of pH. The series is classed as physicochemical. The following applies: buffers at the indicated pH; 50 μM in buffers, phenol form. As to the method:
The pKa values of exemplary compounds according to some embodiments of the present invention, Compounds 14, 18 and 25, was measured by monitoring their UV-Vis absorbance as a function of the environment pH. The tested compounds, at a concentration of 50 μM were dissolved in the respective buffers at the indicated pH and their absorbance was measured.

Series [9] in a line: Fluorescence quantum yield calculation against a reference dye. The series is classed as physicochemical. The following applies: PBS 7.4. Here is the method: Cresyl-violet-perchlorate (as presented hereinbelow) was chosen as a reference compound for the determination of QCy7 quantum yield.
as §2
Conversion to the absolute quantum yield is achieved through the following equation: ΦX=ΦST(GradX/GradST)(η^2X/η^2ST) where the subscripts ST and X denote standard and test respectively, Φ is the fluorescence quantum yield, Grad the gradient from the plot of integrated fluorescence intensity vs. absorbance (see, FIG. 6), and η the refractive index of the solvents. ΦCresyl-violet=0.55 [Stefan et al. ([…]) J. Phys. Chem. 86, 1738-1742].
QCy7 was chosen as a reference compound for the determination of Sulfo-QCy7 quantum yield.
as §3
The absolute quantum yield was calculated as described hereinabove and found to be: […]

In the case of `CC1(C)C(/C=C/c2ccc(OCc3ccc(B(O)O)cc3)c(/C=C/C3=[N+](CCCS(=O)(=O)[O-])c4ccccc4C3(C)C)c2)=[N+](CCCS(=O)(=O)[O-])c2ccccc21` [Compound 4], the “NIR fluorescence in vivo, probe premixed with hydrogen peroxide” value in series [1] (injected into the peritoneal cavity) was “can generate NIR fluorescence in vivo image”. Moreover, the “NIR fluorescence in vivo, probe only” value in series [1] (injected into the peritoneal cavity, no hydrogen peroxide) is listed as “did not show any detectable NIR fluorescence”. Further, the “dependence of NIR fluorescence intensity on hydrogen peroxide concentration in vivo” value in series [1] (premixed, injected intramuscularly into the leg) was “dependent on the hydrogen peroxide initial concentration”. Further, the “signal-to-noise ratio of NIR fluorescence intensity vs control group” value in series [2] (LPS i.p., probe 400 μl of 1 mM i.p. 6 hours later) is listed as “about 10 fold”. For the same compound, in series [2] (LPS i.p., probe i.p. 6 hours later), the “NIR fluorescence signal, LPS-treated vs non-LPS treated mice” value is listed as “significantly greater intensity of NIR fluorescence signal”. Further, in series [2] (no LPS), the “NIR fluorescence in mice treated only with probe” value is “slight NIR fluorescence”. For the same compound, in series [3], the “appearance under NIR imaging camera” value was “clearly transparent”. Further, in series [4] (PBS 7.4, 37° C.), the “NIR fluorescence in the absence of hydrogen peroxide” value was “No NIR fluorescence is observed”. Further, the “time to full conversion of probe to sulfo-QCy7” value in [4] (probe [50 μM], hydrogen peroxide [50 μM], PBS 7.4, 37° C.) was ≤ 30 min. Moreover, the “detectable hydrogen peroxide concentration” value in series [4] (probe [100 μM]) is given as “below 1 μM”.
For the compound `C[n+]1ccc(/C=C/c2ccc(O)c(/C=C/c3cc[n+](C)cc3[N+](=O)[O-])c2)c([N+](=O)[O-])c1.[I-].[I-]` [Compound 12], the λmax entry is listed as “No fluores- cence” in series [5] and 350 nm in series [6].
Turning to `C[n+]1ccc(/C=C/c2cc(/C=C/C3=[N+](CCCS(=O)(=O)[O-])c4ccccc4C3(C)C)ccc2O)cc1.[I-]` [Compound 14], in series [5] (PBS 7.4), the “fluorescence emission peak in the NIR region” value stood at 680 nm. This compound also came in with a λmax in series [5] of 650 nm. Besides, in series [7], the “aqueous stability compared with Cy7” value is given as “increase aqueous stability than that of Cy7” and the “loss of NIR fluorescence during incubation period” value was “did not show any loss of NIR fluorescence”. For the same compound, the “UV-Vis absorption peak maximum” value in series [6] (PBS 7.4) is 550 nm. The pKa (as a rule, the pH at which an ionisable group is half protonated) in series [8] amounted to 2.9. Besides, in [9], the quantum yield is listed as 17%.
`CCOC(=O)c1cc(/C=C/c2cc[n+](C)cc2)c(O)c(/C=C/c2cc[n+](C)cc2)c1` [Compound 19] had a λmax in [5] of 660 nm.
Same read-out and setting: for `CCOC(=O)c1cc(/C=C/c2cc[n+](C)cc2C#N)c(O)c(/C=C/c2cc[n+](C)cc2C#N)c1` [Compound 21] the value was 730 nm.
Regarding `C[n+]1ccc(/C=C/c2cc(C(=O)O)cc(/C=C/c3cc[n+](C)cc3)c2O)cc1` [Compound 29], the λmax in series [5] worked out at 700 nm. The quantum yield in series [9] is recorded as 2%.
With `CC(=O)Oc1ccc(/C=C/C2=[N+](C)c3ccccc3C2(C)C)cc1/C=C/C1=[N+](C)c2ccccc2C1(C)C` [Compound 3], in series [5] (PBS 7.4 [100 μM], λex=560 nm), the “fluorescence emission in the NIR region of masked derivative” value is “did not show any fluorescence emission in the NIR region”.
Regarding `CC(C)(C)c1cc(/C=C/c2ccc(O)c(/C=C/c3cc(C(C)(C)C)[o+]c(C(C)(C)C)c3)c2)cc(C(C)(C)C)[o+]1` [Compound 15], in [5], the λmax entry is on record as “No fluores- cence”.
`CC1(C)C(/C=C/c2cc(/C=C/C3=[N+](CCCS(=O)(=O)[O-])c4ccccc4C3(C)C)c(O)c(/C=C/C3=[N+](CCCS(=O)(=O)[O-])c4ccccc4C3(C)C)c2)=[N+](CCCS(=O)(=O)[O-])c2ccccc21` [Compound 30]: the λmax in [5] was determined as 710 nm. The quantum yield in series [9] was 16%.
In series [5], `C[n+]1ccc(/C=C/c2ccc(O)c(/C=C/c3cc[n+](C)cc3S(=O)(=O)[O-])c2)c(S(=O)(=O)[O-])c1` [Compound 17] displayed a λmax of 730 nm. The quantum yield in series [9] is recorded as 2.6%.
`C[n+]1ccc(/C=C/c2ccc(O)c(/C=C/c3cc[n+](C)c4ccccc34)c2)c2ccccc21.[I-].[I-]` [Compound 13]: the λmax entry in series [5] is on record as “No fluores- cence”; in [6], 550 nm.
Compound `C[n+]1ccc(/C=C/c2cc(C=O)cc(/C=C/c3cc[n+](C)cc3)c2O)cc1` [Compound 22] gave a λmax in series [5] of 650 nm. In addition, the quantum yield in [9] was 7%.
Consider `C[n+]1ccc(/C=C/c2ccc(O)c(/C=C/c3cc[n+](C)cc3C#N)c2)c(C#N)c1.[I-].[I-]` [Compound 11], for which, in [5], the λmax turned out to be 730 nm.
The same measure, in the same setting: for `C[n+]1ccc(/C=C/c2cc([N+](=O)[O-])cc(/C=C/c3cc[n+](C)cc3)c2O)cc1` [Compound 23] the value was 600 nm.
On the same count and under the same terms, the figure for `C[n+]1ccc(/C=C/c2cc(/C=C/c3cc[n+](C)cc3)c(O)c(/C=C/c3cc[n+](C)cc3)c2)cc1.I.I` [Compound 31] is 720 nm.
As for `C[n+]1ccc(/C=C/c2cc(Br)cc(/C=C/c3cc[n+](C)cc3)c2O)cc1` [Compound 27], in series [5], the λmax is on record as 720 nm. The quantum yield in [9] is 2.9%.
For the compound `CCOC(=O)c1cc(/C=C/c2cc[n+](C)c3ccccc23)c(O)c(/C=C/c2cc[n+](C)c3ccccc23)c1` [Compound 20], the λmax result in series [5] is reported as “No fluores- cence”.
Regarding `C[n+]1ccc(/C=C/c2cc(/C=C/c3cc(C(C)(C)C)[o+]c(C(C)(C)C)c3)ccc2O)cc1.I` [Compound 16], the λmax was determined as 730 nm in series [5] and 580 nm in series [6].
For the compound `C[n+]1ccc(/C=C/c2ccc(O)c(/C=C/c3cc[n+](C)cc3)c2)cc1.[I-].[I-]` [Compound 10], the λmax in series [5] turned out to be 720 nm.
